Key:
Stromelysin [1] = molecular target: T1, Stromelysin (Homo sapiens, UniProt P08254); assay: Isothermal denaturation of stromelysin monitored by UV absorbance (hyperchromicity at 280 nm); format: binding; settings: 75° C.; absorbance at 280 nm
T1 construct: made in house
Procedure: Sci., 7; 2118-2126 (1998).
UV absorbance was measured using a Perkin-Elmer Lambda 40 UV-Vis dual-beam spectrophotometer (Perkin-Elmer Corp. Norwalk, Conn.). A capped 1.0 cm pathlength quartz cuvette filled with buffer was placed in the reference beam. In the sample beam, a capped 1.0 cm path length quartz cuvette containing 1.5 mL of degassed buffer or buffer plus ligand—less the volume of protein solution to be added—was placed in a thermostated cell holder and equilibrated at the temperature of isothermal denaturation. The temperature was maintained within 0.1° C. using a Neslab Exacal EX200 circulating water bath (Neslab Instruments, Inc. Portsmouth, N.H.). A 1-5 μL aliquot of the protein stock solution was added to the cuvette containing buffer or buffer plus ligand to yield a final volume of 1.5 mL and protein concentration near 0.5 μM. The cuvette was recapped and absorbance at 280 nm was measured every 1 second for up to 30 minutes with a bandwidth of 2 nm and response of 0.5 second. For each protein, the effects of several ligand concentrations were examined ranging from about 0.5 μM to about 400 μM. Cuvettes were thoroughly cleaned as described above with nitric acid and with 10% methanol and rinsed with distilled water and ethanol between experiments.
Absorbance. […]

Stromelysin [2] = molecular target: T1, Stromelysin; assay: Isothermal denaturation of stromelysin monitored by SYPRO Orange fluorescence; format: binding; settings: 75° C.
Procedure: Time-Dependency of the isothermal denaturation of Stromelysin monitored by SYPRO Orange Fluorescence. […] The data for the control reaction were analyzed using Equation 4, and those for the inhibited reactions with Equation 11. […] The solid lines represent the theoretical fits to the experimental data points.
The time-dependencies of the fluorescence of extrinsic dyes during isothermal denaturation were monitored as follows. The test dye was added to a stirred cuvette containing 2 milliliters (mL) of buffer that had been thermally preequilibrated at the desired temperature. A dye baseline was recorded for 45 seconds and the denaturation reaction initiated by the addition of a small aliquot of the protein stock solution. In this way, the protein reached the temperature of denaturation virtually instantaneously. In separate experiments, the protein was kept at the denaturation temperature in the absence of dye and the reporter molecule added at the end of the reaction. In the latter experiments, the fluorescence increase associated with the addition of dye was always instantaneous.
Two parameters derived from the fluorescence kinetic curves measure the rate of denaturation, namely, the slope at the inflection point, and the first-order rate constant.

[3] = molecular target: T2, S. aureus uridylate kinase (UK) (Staphylococcus aureus, UniProt Q2FZ22); assay: Robotic HTS isothermal denaturation assay, uridylate kinase, Nano Orange
T2 sequence (Q2FZ22 1-240): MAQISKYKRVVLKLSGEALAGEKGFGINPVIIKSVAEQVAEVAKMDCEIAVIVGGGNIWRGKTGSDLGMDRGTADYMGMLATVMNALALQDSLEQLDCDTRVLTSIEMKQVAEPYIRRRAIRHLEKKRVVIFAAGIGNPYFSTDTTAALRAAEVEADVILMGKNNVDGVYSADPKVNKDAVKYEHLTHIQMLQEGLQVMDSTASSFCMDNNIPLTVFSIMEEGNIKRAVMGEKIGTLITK
Text: Temperature was controlled with a circulating waterbath.
Validation of Robotic HTS Assay.

uridylate kinase (UK) = molecular target: T3, uridylate kinase (UK) (Staphylococcus aureus, UniProt Q2FZ22); assay: Uridylate kinase activity assay at 25° C.; format: biochemical, S. aureus; settings: read-out: apparent Kd obtained from an activity assay
T3 construct: 6-his tag (implied by Ni-NTA purification); made in house
T3 sequence (Q2FZ22 1-240): T2 sequence (Q2FZ22 1-240)

[4] = molecular target: T4, S. aureus thymidylate kinase (TK) (Staphylococcus aureus, UniProt P65248); assay: biochemical; format: binding
T4 construct: 6-his tag; made in house
T4 sequence (P65248 whole entry): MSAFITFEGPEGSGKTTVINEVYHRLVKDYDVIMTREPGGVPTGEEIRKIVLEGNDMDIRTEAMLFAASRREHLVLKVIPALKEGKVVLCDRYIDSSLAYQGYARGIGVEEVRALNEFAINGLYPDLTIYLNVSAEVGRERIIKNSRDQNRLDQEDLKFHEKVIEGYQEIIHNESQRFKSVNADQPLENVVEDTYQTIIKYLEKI

T1 sequence (P08254 100-264 limits assumed): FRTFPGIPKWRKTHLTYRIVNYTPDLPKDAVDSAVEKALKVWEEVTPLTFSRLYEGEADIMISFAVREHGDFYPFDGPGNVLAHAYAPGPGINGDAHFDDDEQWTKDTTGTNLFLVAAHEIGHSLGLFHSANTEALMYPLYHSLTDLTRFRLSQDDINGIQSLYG

`CNC(=O)[C@H](Cc1ccc(O)cc1)NC(=O)Nc1n[nH]c(=S)s1` [PNU-143988] was tested. Which “effect on hyperchromicity changes” value (Stromelysin [1]) did it give?
Its value is “dose-dependent inhibition of both the rate and magnitude”.

And the “effect on denaturation of stromelysin” value (Stromelysin [2])?
Its value is “inhibited in a dose-dependent manner”.

With `O=c1ccn([C@@H]2O[C@H](COP(=O)(O)O)[C@@H](O)[C@H]2O)c(=O)[nH]1` [UMP, uridine monophosphate] as the compound, how does the Kd [3] read?
Its Kd is 5.76 ± 0.95 mM.

What about the effect on denaturation ([3]; 41° C., 96-well microplate, robotic) of the same compound?
The effect on denaturation was “concentration-dependent”.

And the Kd (uridylate kinase (UK))?
The Kd was 1 mM.

How did the Kd ([4]; Kd calculated from the rate constants) turn out when `Cc1cn([C@H]2C[C@H](O)[C@@H](COP(=O)(O)O)O2)c(=O)[nH]c1=O` [TMP, Thymidine monophosphate] was run?
The Kd was 7.6 ± 0.8 mM.

What about the Kd ([4]; Kd calculated from the slopes) of the same compound?
Its Kd is 9.1 ± 1.6 mM.

Source: patent US6713260B2, “Methods of identifying compounds that bind to target species under isothermal denaturing conditions” (Pharmacia & Upjohn Company, priority 1999, dated 2004)
